These are literature values, as cited in US6667342B1, “Benzenesulfonamide-derivatives and their use as medicaments” (Astrazeneca AB, priority 1998, dated 2003).

Each structure is given as a SMILES string.

Take `O=C(O)C(Cl)Cl` [DCA, dichloroacetic acid]: in the data set with PDH (after acute administration in animals (Vary et al. 1988)), the “activity of PDH” value is recorded as “increases”. In the data set on PDH (single administration, 150 mg/kg, intraperitoneally (Vary et al. 1988)), the “proportion of PDH in its active form” value is on record as “increased”. For the same molecule, the glycaemia entry (Stacpoole et al. 1978) is reported as “reducing glycaemia”. In addition, the plasma glucose result (after repeated administration (Evans and Stacpoole 1982)) is on record as “significant decrease”.
